“Also recorded” adds a separate entry of the source. Where two headings read alike, the source gives them in different places.
Columns and labels:
wild-type flies [1] = test: Homeostatic response (sleep recovered) in the 24 h after 14 h of drug-induced waking; assay type: in vivo, Drosophila melanogaster; details: for homeostatic response / compensation for sleep lost during drug-induced waking: 14 h on drug, 24 h recovery, caffeine 2.5 mg/ml, methamphetamine 1 mg/ml
Experimental: (§1) Three day old female flies were placed in 65 mm glass tubes and sleep parameters were continuously evaluated throughout all experiments using the Trikinetics activity monitoring system as previously described (Shaw, P J et al., 2000. Science 287: 1834-1837; Shaw, P J et al., 2002. Nature 417: 287-291) (www.Trikinetics.com). […] Three independent replicates of 32 flies were conducted for each time point. Following SD, two thirds of the flies from each group were frozen and RNA was extracted from whole heads. The remaining one third of the flies were monitored for an additional 24 h to assay the size of the homeostatic response. Using this protocol, both gene expression and behavior can be evaluated in siblings that have been exposed to identical environments and experimental manipulations.
(§2) Pharmacological studies were conducted on female Canton-s flies. Three-day old Cs female flies were individually placed into 65 mm glass tubes in the Trikinetics activity monitoring system and evaluated for two days under LD. […] All groups had similar amounts of baseline sleep. In all cases, the drug was dissolved in food along with an inert dye. It could be determined, therefore, if the fly had ingested the drug not only by its behavior, but also by observing the dye in its abdomen. The following morning, after 14 h of drug treatment, two thirds of the flies from each group were frozen and RNA was extracted from whole heads and the amount of dye in the abdomen was evaluated. The remaining one third of the flies were monitored for an additional 24 h to assay the size of the homeostatic response.
Sustained periods of waking in the fly can be induce pharmacologically (Hendricks, J C et al., 2000. Neuron 25: 129-138; Shaw, P J et al., 2000. Science 287: 1834-1837). […] Therefore wild-type flies were exposed to either caffeine or methamphetamine for 14 h and evaluated the magnitude of the homeostatic response. As above, gene expression was evaluated using qPCR and one third of the flies were allowed to recover for 24 h after drug removal and regular food was restored. […]

Amylase mRNA (CG18640) = test: qPCR of Amylase (CG18640) mRNA from whole heads after drug-induced waking; assay type: in vivo, Drosophila melanogaster; details: wild-type fly heads, immediately after 14 h of drug-induced waking; caffeine 2.5 mg/mL, methamphetamine 1 mg/ml
Experimental: as §2
Total RNA was isolated from fly heads using Trizol (Invitrogen, Carlsbad, Calif.) following the manufacturers protocol. […] Values were expressed as a percentage of untreated animals and were evaluated using a one-way ANOVA.
Sustained periods of waking in the fly can be induce pharmacologically (Hendricks, J C et al., 2000. Neuron 25: 129-138; Shaw, P J et al., 2000. Science 287: 1834-1837). […] Therefore wild-type flies were exposed to either caffeine or methamphetamine for 14 h and evaluated the magnitude of the homeostatic response. […]

wild-type flies [2] = test: Pharmacologically induced waking in flies (Trikinetics activity monitoring); assay type: in vivo, Drosophila melanogaster; details: drug dissolved in food
Experimental: as §1
Pharmacological studies were conducted on female Canton-s flies. Three-day old Cs female flies were individually placed into 65 mm glass tubes in the Trikinetics activity monitoring system and evaluated for two days under LD. […] It could be determined, therefore, if the fly had ingested the drug not only by its behavior, but also by observing the dye in its abdomen. The following morning, after 14 h of drug treatment, two thirds of the flies from each group were frozen and RNA was extracted from whole heads and the amount of dye in the abdomen was evaluated. […]

Amy/Luc flies = test: Bioluminescence recording in Amy/Luc flies (amylase promoter linked to firefly luciferase); assay type: in vivo, Drosophila melanogaster; details: caffeine 2.5 mg/ml from the morning after a full night's sleep, recorded 12 h, n=9
Experimental: Prior to luminescence recordings, sleep was evaluated for 2 days in female Amy/Luc flies as described above with the exception that they were maintained on 0.5% sucrose supplemented with 1 mM beetle luciferin (Promega, Madison Wis.). On day 3, flies were sleep deprived for 12 h (n=9) or served as untreated controls (n=9). Flies that were sleep deprived were removed from their 65 mm glass tubes and placed into Petri dishes with 200 μl of fresh 0.5% sucrose 1 mM beetle luciferin. Siblings that had not been sleep deprived were placed into Petri dishes with 2.5 mg/ml of caffeine added to the 0.5% sucrose 1 mM beetle luciferin. Bioluminescence was subsequently recorded in 1 min bins for 12 h under photomultiplier tubes (HC135-11MOD; Hamamatsu, Shizouka, Japan) as previously described (Abraham, U, et al., 2005. J Neurosci 25: 8620-8626). Amy/Luc flies that had never been exposed to luciferin were recorded for 12 h and served as a blank. Luminescence for SD and caffeine treated flies was subtracted from the blank and smoothed using a 3 h running average. Two independent replicates were conducted.
To determine whether amylase can provide an assessment of sleep drive in real-time, a Drosophila line in which the promoter for amylase was linked to the firefly luciferase (Amy/Luc) was evaluated (Hickey, D A, et al., 1994. Proc Natl Acad Sci USA 91: 11109-11112). […]

flies = details: 20 μM paraquat, exposures longer than 16 h; Shaw et al. 2002; cited from earlier work
amylase activity = test: Amylase activity in fly homogenates after paraquat stress (Infinity Amylase reagent); assay type: in vivo, Drosophila melanogaster; details: Cs female flies, 20 μM paraquat in 1% agar 5% sucrose for 16 h
Experimental: Amylase activity was evaluated following 28 h of sleep deprivation in Cs flies to match the duration of waking used in the human experiments. Female Cs flies were sleep deprived for 28 h beginning at lights out (8 pm). Whole body homogenates were extracted from 4 groups of 5 flies and compared to untreated circadian-matched controls; experiments were conducted in duplicate. Amylase activity was determined using the Infinity Amylase reagent (TR25421; Thermo Electron Corp, Louisville, Co., USA) according to the manufacturer's instructions. All samples were assayed in quadruplicate. To evaluate the effects of stress on amylase activity, Cs females were placed onto 20 μM paraquat dissolved in 1% agar 5% sucrose for 16 h and sacrificed at the same circadian time as the 28 h SD flies and their controls.

wild-type flies [3] = details: literature and unpublished data; cited from earlier work

Row | Compound | homeostatic response / compensation for sleep lost during drug-induced waking (wild-type flies [1]) | Amylase (CG18640) mRNA expression vs. untreated controls (Amylase mRNA (CG18640)) | waking produced by the drug (wild-type flies [2]) | waking produced by the drug (wild-type flies [3]) | further results
1 | Cn1c(=O)c2c(ncn2C)n(C)c1=O [caffeine] | exhibit a rebound of similar magnitude as that seen following manual SD | strongly activated; also recorded: exhibit significant increases in Amylase mRNA; also recorded: elevated | produce sustained periods of waking |  | lost sleep recovered (wild-type flies [1]; 14 h of caffeine-induced waking, FIG. 5A): 30-50%; bioluminescence (counts/min) in Amy/Luc flies (Amy/Luc flies): increased as the animals spent more time on caffeine; also recorded: progressive increase in bioluminescence
2 | C[n+]1ccc(-c2cc[n+](C)cc2)cc1 [paraquat] |  |  |  |  | lethality on paraquat (flies): flies begin to die during longer exposures; amylase activity (amylase activity): did not alter Amylase activity
3 | COC(=O)C(c1ccccc1)C1CCCCN1 (stereo not shown) [methylphenidate] |  |  |  | produce waking | 
4 | CN[C@@H](C)Cc1ccccc1 [methamphetamine] | do not compensate for the lost sleep; also recorded: do not induce a homeostatic response | not activated; also recorded: do not induce Amylase mRNA; also recorded: not after waking induced by methamphetamine | produce sustained periods of waking |  | 
5 | NC(=O)C[S+]([O-])C(c1ccccc1)c1ccccc1 (stereo not shown) [modafinil] |  |  |  | produce waking | 
6 | CC(N)Cc1ccccc1 (stereo not shown) [amphetamine] |  |  |  | produce waking | 
